Laboratory results: patent US12522601B2, “1,3,4-oxadiazole derivative compounds as histone deacetylase 6 inhibitor, and the pharmaceutical composition comprising the same” (CHONG KUN DANG PHARMACEUTICAL CORP., priority 2020, dated 2026)

Legend:
human recombinant HDAC1 = target: T1, human recombinant HDAC1 (Homo sapiens, UniProt Q13547); experiment: In vitro HDAC enzyme activity inhibition assay, HDAC1 (HDAC Fluorimetric Drug Discovery Kit); format: biochemical; details: human recombinant HDAC1, Fluor de Lys-SIRT1 substrate 10 μM, 30° C. for 60 minutes
T1 construct: purchased Enzo Life Sciences, Inc. BML-SE456
T1 sequence (Q13547 whole entry): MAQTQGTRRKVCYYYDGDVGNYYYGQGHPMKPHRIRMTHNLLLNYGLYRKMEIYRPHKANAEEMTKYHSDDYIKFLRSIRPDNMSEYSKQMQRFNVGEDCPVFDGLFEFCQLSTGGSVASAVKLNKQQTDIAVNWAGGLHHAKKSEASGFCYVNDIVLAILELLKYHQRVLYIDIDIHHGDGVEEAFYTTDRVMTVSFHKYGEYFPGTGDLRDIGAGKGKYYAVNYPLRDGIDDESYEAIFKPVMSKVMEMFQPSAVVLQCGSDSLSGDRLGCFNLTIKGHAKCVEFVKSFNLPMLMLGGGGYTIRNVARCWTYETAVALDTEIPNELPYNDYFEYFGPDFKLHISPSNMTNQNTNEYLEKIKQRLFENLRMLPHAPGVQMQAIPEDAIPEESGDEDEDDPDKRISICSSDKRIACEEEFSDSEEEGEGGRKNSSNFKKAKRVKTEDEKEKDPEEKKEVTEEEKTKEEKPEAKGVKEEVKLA
Procedure, shortened: (§1)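 Fluorimetric deacetylase kit; 0.3 μg human recombinant enzyme with 10 μM Fluor de Lys-SIRT1 substrate, 60 min at 30° C, then developer 30 min. Fluorescence read at Ex 360/Em 460; IC50 from 5-fold compound dilutions. HDAC1 and HDAC6 run by the same protocol.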

human recombinant HDAC6 = target: T2, human recombinant HDAC6 (Homo sapiens, UniProt Q9UBN7); experiment: In vitro HDAC enzyme activity inhibition assay, HDAC6 (HDAC Fluorimetric Drug Discovery Kit); format: biochemical; details: for HDAC6 Selectivity (fold): HDAC6 versus HDAC1; for IC50: human recombinant HDAC6, same protocol as the HDAC1 test
T2 construct: purchased Calbiochem Inc. 382180
T2 sequence (Q9UBN7 1-1215): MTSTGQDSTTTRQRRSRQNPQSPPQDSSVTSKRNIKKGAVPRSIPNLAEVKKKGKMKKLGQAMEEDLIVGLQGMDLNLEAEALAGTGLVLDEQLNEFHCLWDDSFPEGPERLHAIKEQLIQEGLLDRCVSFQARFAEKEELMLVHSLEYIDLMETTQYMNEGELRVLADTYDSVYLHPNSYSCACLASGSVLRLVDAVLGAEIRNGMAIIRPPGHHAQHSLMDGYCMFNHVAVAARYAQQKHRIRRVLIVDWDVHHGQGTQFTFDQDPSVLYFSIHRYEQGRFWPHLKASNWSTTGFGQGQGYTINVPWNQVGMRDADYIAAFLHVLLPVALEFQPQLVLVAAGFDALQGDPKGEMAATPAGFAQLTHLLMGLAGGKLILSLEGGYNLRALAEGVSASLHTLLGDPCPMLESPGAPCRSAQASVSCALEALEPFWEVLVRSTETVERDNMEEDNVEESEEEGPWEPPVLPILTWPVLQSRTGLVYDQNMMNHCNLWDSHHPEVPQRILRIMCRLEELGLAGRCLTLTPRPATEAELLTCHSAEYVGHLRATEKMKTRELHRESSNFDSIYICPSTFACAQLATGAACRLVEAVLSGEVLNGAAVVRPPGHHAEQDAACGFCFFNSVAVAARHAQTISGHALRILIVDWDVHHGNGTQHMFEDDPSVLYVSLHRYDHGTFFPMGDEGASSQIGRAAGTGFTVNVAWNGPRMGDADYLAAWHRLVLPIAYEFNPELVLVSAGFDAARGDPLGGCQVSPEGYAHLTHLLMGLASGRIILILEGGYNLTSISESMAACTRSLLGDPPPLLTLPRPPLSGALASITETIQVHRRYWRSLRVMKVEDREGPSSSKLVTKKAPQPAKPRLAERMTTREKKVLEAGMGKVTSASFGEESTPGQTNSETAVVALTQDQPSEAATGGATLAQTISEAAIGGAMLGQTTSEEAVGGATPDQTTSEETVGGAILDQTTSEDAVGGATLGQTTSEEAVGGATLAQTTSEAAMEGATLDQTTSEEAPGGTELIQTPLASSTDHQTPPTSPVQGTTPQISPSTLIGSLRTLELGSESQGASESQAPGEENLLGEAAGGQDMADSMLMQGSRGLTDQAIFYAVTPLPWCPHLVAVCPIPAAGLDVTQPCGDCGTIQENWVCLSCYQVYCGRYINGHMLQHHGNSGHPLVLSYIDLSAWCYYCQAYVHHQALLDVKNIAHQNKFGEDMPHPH
Procedure, shortened: as §1

Row | Compound | IC50 (human recombinant HDAC1) | HDAC6 Selectivity (fold) (human recombinant HDAC6) | IC50 (human recombinant HDAC6)
1 | O=C(N1CCN(c2ccccn2)CC1)N(Cc1cn2ccc(-c3nnc(C(F)F)o3)cc2n1)c1cccc(F)c1 [Compound 4100, N-((7-(5-(difluoromethyl)-1,3,4-oxadiazol-2-yl)imidazo[1,2-a]pyridin-2-yl)methyl)-N-(3-fluorophenyl)-4-(pyridin-2-yl)piperazine-1-carboxamide] | > 50000 nM | 107 fold | 468 nM
2 | O=C(N1CCN(c2ncccn2)CC1)N(Cc1cn2ccc(-c3nnc(C(F)F)o3)cc2n1)c1cccc(F)c1 [Compound 4101, N-((7-(5-(difluoromethyl)-1,3,4-oxadiazol-2-yl)imidazo[1,2-a]pyridin-2-yl)methyl)-N-(3-fluorophenyl)-4-(pyrimidin-2-yl)piperazine-1-carboxamide] | > 50000 nM | 464 fold | 108 nM
3 | O=C(C1COC1)N1CCN(C(=O)N(Cc2cn3ccc(-c4nnc(C(F)F)o4)cc3n2)c2ccccc2)CC1 [Compound 4102, N-((7-(5-(difluoromethyl)-1,3,4-oxadiazol-2-yl)imidazo[1,2-a]pyridin-2-yl)methyl)-4-(oxetan-3-carbonyl)-N-phenylpiperazine-1-carboxamide] | > 50000 nM | 164 fold | 305 nM
4 | O=C(C1COC1)N1CCN(C(=O)N(Cc2cn3ccc(-c4nnc(C(F)F)o4)cc3n2)c2cccc(F)c2)CC1 [Compound 4103, N-((7-(5-(difluoromethyl)-1,3,4-oxadiazol-2-yl)imidazo[1,2-a]pyridin-2-yl)methyl)-N-(3-fluorophenyl)-4-(oxetan-3-carbonyl)piperazine-1-carboxamide] | > 50000 nM | 249 fold | 201 nM
5 | CCN1CCC(C(=O)N(Cc2cn3ccc(-c4nnc(C(F)F)o4)cc3n2)c2ccccc2)CC1 [Compound 4115, N-((7-(5-(difluoromethyl)-1,3,4-oxadiazol-2-yl)imidazo[1,2-a]pyridin-2-yl)methyl)-1-ethyl-N-phenylpiperidine-4-carboxamide] | > 50000 nM | 141 fold | 354 nM
6 | CC(C)N1CCC(C(=O)N(Cc2cn3ccc(-c4nnc(C(F)F)o4)cc3n2)c2ccccc2)CC1 [Compound 4116, N-((7-(5-(difluoromethyl)-1,3,4-oxadiazol-2-yl)imidazo[1,2-a]pyridin-2-yl)methyl)-1-isopropyl-N-phenylpiperidine-4-carboxamide] | > 50000 nM | 159 fold | 314 nM
7 | CC(CO)N1CCC(C(=O)N(Cc2cn3ccc(-c4nnc(C(F)F)o4)cc3n2)c2ccccc2)CC1 (stereo not drawn) [Compound 4117, N-((7-(5-(difluoromethyl)-1,3,4-oxadiazol-2-yl)imidazo[1,2-a]pyridin-2-yl)methyl)-1-(1-hydroxypropan-2-yl)-N-phenylpiperidine-4-carboxamide] | > 50000 nM | 133 fold | 377 nM
8 | O=C(C1CCN(C2CCC2)CC1)N(Cc1cn2ccc(-c3nnc(C(F)F)o3)cc2n1)c1ccccc1 [Compound 4118, 1-cyclobutyl-N-((7-(5-(difluoromethyl)-1,3,4-oxadiazol-2-yl)imidazo[1,2-a]pyridin-2-yl)methyl)-N-phenylpiperidine-4-carboxamide] | > 50000 nM | 151 fold | 332 nM
9 | O=C(C1CCN(C2CCCCC2)CC1)N(Cc1cn2ccc(-c3nnc(C(F)F)o3)cc2n1)c1ccccc1 [Compound 4119, 1-cyclohexyl-N-((7-(5-(difluoromethyl)-1,3,4-oxadiazol-2-yl)imidazo[1,2-a]pyridin-2-yl)methyl)-N-phenylpiperidine-4-carboxamide] | > 50000 nM | 124 fold | 402 nM
